Measurements taken from the supplement of paper PMC10307832.

Key:
Assay in all cases: relative viability (nuclei count vs DMSO), 5 days (fraction); higher = more cells survive
[1] = compound: C1CSC2=C(C(=O)N1)SC3=C2C=C(C=C3)O [kb NB 142-70] + Nc1nc2[nH]cc(CCc3ccc(C(=O)N[C@@H](CCC(=O)O)C(=O)O)cc3)c2c(=O)[nH]1 [Pemetrexed] (partner 0.2 µM)
Outline: (§1)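 Cells from lung cancer lines were seeded into 1536-well plates and, one day later, dosed by pin tool. Treatments were either a single drug or a fixed dose of an anchor drug with five library-drug doses (not always all listed) in √10 steps. After 5 days, nuclei were stained in a one-step fixation (final 0.05% Triton X-100, 1% formaldehyde, 1 ug/ml Hoechst) and counted on 4× images, and relative viability is the treated-to-vehicle nuclei ratio, as the median of duplicate plates.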

[2] = compound: C1CSC2=C(C(=O)N1)SC3=C2C=C(C=C3)O [kb NB 142-70] + O=C(c1cc(Cc2n[nH]c(=O)c3ccccc23)ccc1F)N1CCN(C(=O)C2CC2)CC1 [Olaparib] (partner 8 µM)
Outline: as §1

[3] = compound: NCC(=O)Nc1ccc(-n2nc(C(F)(F)F)cc2-c2ccc3c(ccc4ccccc43)c2)cc1 + O=C(CCCCCCC(=O)Nc1ccccc1)NO [Vorinostat] (partner 1 µM)
Outline: as §1

[4] = compound: NCC(=O)Nc1ccc(-n2nc(C(F)(F)F)cc2-c2ccc3c(ccc4ccccc43)c2)cc1 + CS(=O)(=O)N1CCN(Cc2cc3nc(-c4cccc5[nH]ncc45)nc(N4CCOCC4)c3s2)CC1 [Pictilisib] (partner 1 µM)
Outline: as §1

NCI-H1651
relative viability ([1]; first compound 0.1 µM): 0.598
relative viability ([1]; first compound 1 µM): 0.578
relative viability ([1]; first compound 3.162 µM): 0.552
relative viability ([2]; first compound 0.1 µM): 0.181
relative viability ([2]; first compound 1 µM): 0.181
relative viability ([2]; first compound 3.162 µM): 0.187
relative viability ([3]; first compound 0.02 µM): 0.593
relative viability ([3]; first compound 0.06325 µM): 0.442
relative viability ([3]; first compound 0.2 µM): 0.543
relative viability ([3]; first compound 0.6325 µM): 0.612
relative viability ([3]; first compound 2 µM): 0.554
relative viability ([4]; first compound 0.02 µM): 0.58
relative viability ([4]; first compound 0.06325 µM): 0.591
relative viability ([4]; first compound 0.2 µM): 0.592
relative viability ([4]; first compound 0.6325 µM): 0.467
relative viability ([4]; first compound 2 µM): 0.513

NCI-H1666
relative viability ([1]; first compound 0.1 µM): 0.811
relative viability ([1]; first compound 1 µM): 0.977
relative viability ([1]; first compound 3.162 µM): 0.897
relative viability ([2]; first compound 0.1 µM): 0.73
relative viability ([2]; first compound 1 µM): 0.78
relative viability ([2]; first compound 3.162 µM): 0.823
relative viability ([3]; first compound 0.02 µM): 1.03
relative viability ([3]; first compound 0.06325 µM): 1.07
relative viability ([3]; first compound 0.2 µM): 1.13
relative viability ([3]; first compound 0.6325 µM): 0.938
relative viability ([3]; first compound 2 µM): 0.944
relative viability ([4]; first compound 0.02 µM): 0.554
relative viability ([4]; first compound 0.06325 µM): 0.424
relative viability ([4]; first compound 0.2 µM): 0.437
relative viability ([4]; first compound 0.6325 µM): 0.505
relative viability ([4]; first compound 2 µM): 0.404

NCI-H1734
relative viability ([1]; first compound 0.1 µM): 0.395
relative viability ([1]; first compound 1 µM): 0.369
relative viability ([1]; first compound 3.162 µM): 0.376
relative viability ([2]; first compound 0.1 µM): 0.586
relative viability ([2]; first compound 1 µM): 0.509
relative viability ([2]; first compound 3.162 µM): 0.304
relative viability ([3]; first compound 0.02 µM): 0.773
relative viability ([3]; first compound 0.06325 µM): 0.848
relative viability ([3]; first compound 0.2 µM): 0.827
relative viability ([3]; first compound 0.6325 µM): 0.773
relative viability ([3]; first compound 2 µM): 0.817
relative viability ([4]; first compound 0.02 µM): 0.451
relative viability ([4]; first compound 0.06325 µM): 0.462
relative viability ([4]; first compound 0.2 µM): 0.464
relative viability ([4]; first compound 0.6325 µM): 0.43
relative viability ([4]; first compound 2 µM): 0.474

NCI-H1755
relative viability ([1]; first compound 0.1 µM): 0.43
relative viability ([1]; first compound 1 µM): 0.403
relative viability ([1]; first compound 3.162 µM): 0.519
relative viability ([2]; first compound 0.1 µM): 0.934
relative viability ([2]; first compound 1 µM): 0.809
relative viability ([2]; first compound 3.162 µM): 0.883
relative viability ([3]; first compound 0.02 µM): 0.758
relative viability ([3]; first compound 0.06325 µM): 0.824
relative viability ([3]; first compound 0.2 µM): 0.788
relative viability ([3]; first compound 0.6325 µM): 0.768
relative viability ([3]; first compound 2 µM): 0.833
relative viability ([4]; first compound 0.02 µM): 0.384
relative viability ([4]; first compound 0.06325 µM): 0.487
relative viability ([4]; first compound 0.2 µM): 0.454
relative viability ([4]; first compound 0.6325 µM): 0.435
relative viability ([4]; first compound 2 µM): 0.479

NCI-H1793
relative viability ([1]; first compound 0.1 µM): 0.73
relative viability ([1]; first compound 1 µM): 0.902
relative viability ([1]; first compound 3.162 µM): 0.609
relative viability ([2]; first compound 0.1 µM): 0.88
relative viability ([2]; first compound 1 µM): 1.02
relative viability ([2]; first compound 3.162 µM): 0.508
relative viability ([3]; first compound 0.02 µM): 0.758
relative viability ([3]; first compound 0.06325 µM): 0.874
relative viability ([3]; first compound 0.2 µM): 0.699
relative viability ([3]; first compound 0.6325 µM): 0.793
relative viability ([3]; first compound 2 µM): 0.86
relative viability ([4]; first compound 0.02 µM): 0.263
relative viability ([4]; first compound 0.06325 µM): 0.401
relative viability ([4]; first compound 0.2 µM): 0.343
relative viability ([4]; first compound 0.6325 µM): 0.455
relative viability ([4]; first compound 2 µM): 0.349

NCI-H1915
relative viability ([1]; first compound 0.1 µM): 0.462
relative viability ([1]; first compound 1 µM): 0.532
relative viability ([1]; first compound 3.162 µM): 0.474
relative viability ([2]; first compound 0.1 µM): 0.286
relative viability ([2]; first compound 1 µM): 0.236
relative viability ([2]; first compound 3.162 µM): 0.145
relative viability ([3]; first compound 0.02 µM): 0.525
relative viability ([3]; first compound 0.06325 µM): 0.555
relative viability ([3]; first compound 0.2 µM): 0.56
relative viability ([3]; first compound 0.6325 µM): 0.497
relative viability ([3]; first compound 2 µM): 0.552
relative viability ([4]; first compound 0.02 µM): 0.79
relative viability ([4]; first compound 0.06325 µM): 1.05
relative viability ([4]; first compound 0.2 µM): 0.922
relative viability ([4]; first compound 0.6325 µM): 0.914
relative viability ([4]; first compound 2 µM): 0.999

NCI-H1944
relative viability ([1]; first compound 0.1 µM): 0.633
relative viability ([1]; first compound 1 µM): 0.757
relative viability ([1]; first compound 3.162 µM): 0.665
relative viability ([2]; first compound 0.1 µM): 0.434
relative viability ([2]; first compound 1 µM): 0.414
relative viability ([2]; first compound 3.162 µM): 0.482
relative viability ([3]; first compound 0.02 µM): 0.546
relative viability ([3]; first compound 0.06325 µM): 0.695
relative viability ([3]; first compound 0.2 µM): 0.554
relative viability ([3]; first compound 0.6325 µM): 0.558
relative viability ([3]; first compound 2 µM): 0.526
relative viability ([4]; first compound 0.02 µM): 0.349
relative viability ([4]; first compound 0.06325 µM): 0.359
relative viability ([4]; first compound 0.2 µM): 0.326
relative viability ([4]; first compound 0.6325 µM): 0.35
relative viability ([4]; first compound 2 µM): 0.331

NCI-H1975
relative viability ([1]; first compound 0.1 µM): 0.259
relative viability ([1]; first compound 1 µM): 0.309
relative viability ([1]; first compound 3.162 µM): 0.239
relative viability ([2]; first compound 0.1 µM): 0.81
relative viability ([2]; first compound 1 µM): 0.883
relative viability ([2]; first compound 3.162 µM): 0.35
relative viability ([3]; first compound 0.02 µM): 0.728
relative viability ([3]; first compound 0.06325 µM): 0.729
relative viability ([3]; first compound 0.2 µM): 0.804
relative viability ([3]; first compound 0.6325 µM): 0.704
relative viability ([3]; first compound 2 µM): 0.747
relative viability ([4]; first compound 0.02 µM): 0.273
relative viability ([4]; first compound 0.06325 µM): 0.307
relative viability ([4]; first compound 0.2 µM): 0.292
relative viability ([4]; first compound 0.6325 µM): 0.335
relative viability ([4]; first compound 2 µM): 0.307
